Read-outs that look alike come from different tables or passages of the source.
Target: T1, METTL3/14 (Homo sapiens, UniProt Q86U44)
T1 construct: The enzyme used was full-length his-tagged METTL3; His; made in house
Assay: METTL3/14 methyltransferase assay (METTL3_14 RFMS, RapidFire mass spectrometry);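 also: recombinant His-tagged METTL3 with FLAG-tagged METTL14 from baculovirus, SAH product quantified by mass spectrometry against isotope-labelled internal standards, 60 min at room temperature, scaled between no-RNA and DMSO-only wells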
Type: biochemical
Settings: 5 nM METTL3/14, 0.2 μM RNA substrate, 0.5 μM SAM, lower limit of the assay IC50=5 nM, read-out: METTL3_14 RFMS IC50

T1 sequence (Q86U44 whole entry): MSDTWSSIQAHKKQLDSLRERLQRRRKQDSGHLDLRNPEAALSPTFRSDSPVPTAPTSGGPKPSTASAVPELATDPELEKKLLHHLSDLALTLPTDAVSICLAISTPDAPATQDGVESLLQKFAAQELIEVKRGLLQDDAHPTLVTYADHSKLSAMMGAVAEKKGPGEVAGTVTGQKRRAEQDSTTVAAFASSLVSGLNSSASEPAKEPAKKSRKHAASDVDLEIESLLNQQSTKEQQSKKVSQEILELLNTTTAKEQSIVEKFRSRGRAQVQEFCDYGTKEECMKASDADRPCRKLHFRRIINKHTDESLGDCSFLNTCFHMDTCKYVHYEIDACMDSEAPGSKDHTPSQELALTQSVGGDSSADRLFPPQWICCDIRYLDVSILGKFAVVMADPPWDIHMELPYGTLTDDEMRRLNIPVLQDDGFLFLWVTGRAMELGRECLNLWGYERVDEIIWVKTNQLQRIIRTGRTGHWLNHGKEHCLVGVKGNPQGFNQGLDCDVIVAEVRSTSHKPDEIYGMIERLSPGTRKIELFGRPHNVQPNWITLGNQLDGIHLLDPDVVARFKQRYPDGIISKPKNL
T1 sequence (Q9HCE5 whole entry partner): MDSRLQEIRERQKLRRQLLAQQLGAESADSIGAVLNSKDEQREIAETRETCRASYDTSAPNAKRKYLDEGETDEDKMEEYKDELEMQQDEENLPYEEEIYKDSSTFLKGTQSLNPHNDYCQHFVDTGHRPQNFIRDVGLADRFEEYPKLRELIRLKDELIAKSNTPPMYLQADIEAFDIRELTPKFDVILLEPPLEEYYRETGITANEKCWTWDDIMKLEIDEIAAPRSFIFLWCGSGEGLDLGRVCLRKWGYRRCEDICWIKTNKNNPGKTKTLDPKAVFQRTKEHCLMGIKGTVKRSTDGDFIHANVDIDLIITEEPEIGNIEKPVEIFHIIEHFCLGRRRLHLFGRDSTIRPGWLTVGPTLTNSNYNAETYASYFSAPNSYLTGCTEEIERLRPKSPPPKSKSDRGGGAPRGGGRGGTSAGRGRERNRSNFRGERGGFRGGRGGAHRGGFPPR

SMILES | IC50 (Compounds 63-265) | IC50 (Compounds 1-62) | further results
O=C(NCc1cn2cc(CNc3ccc(Cl)cc3)ccc2n1)c1cc(=O)n2ccccc2n1 [Compound 153, N-[(6-{[(4-chlorophenyl)amino]methyl}imidazo[1,2-a]pyridin-2-yl)methyl]-4-oxo-4H-pyrido[1,2-a] pyrimidine-2-carboxamide] | 1580 nM | – | –
O=C(NCc1cn2cc(F)ccc2n1)c1cc(=O)n2ccccc2n1 [Compound 22, N-({6-fluoroimidazo[1,2-a]pyridin-2-yl}methyl)-4-oxo-4H-pyrido[1,2-a]pyrimidine-2-carboxamide] | – | 2210 nM | –
O=C(NCc1cn2cc(CNCc3ccccc3)ccc2n1)c1cc(=O)c2ccccc2o1 [Compound 221, N-({6-[(benzylamino)methyl]imidazo[1,2-a]pyridin-2-yl}methyl)-4-oxo-4H-chromene-2-carboxamide] | 46.7 nM | – | –
O=C(NCc1cn2cc(C3CNCCN3)ccc2n1)c1cc(=O)n2ccccc2n1 (stereo not drawn) [Example 333, 4-oxo-N-[(6-piperazin-2-ylimidazo[1,2-a]pyridin-2-yl)methyl]pyrido[1,2-a]pyrimidine-2-carboxamide] | – | – | IC50 (Compounds 266-351): 1230 nM
O=C(NCc1cn2cc(CNCC3(F)CCCC3)ccc2n1)c1cc(=O)n2ccccc2n1 [Compound 198, N-{[6-({[(1-fluorocyclopentyl)methyl]amino}methyl)imidazo [1,2-a]pyridin-2-yl]methyl}-4-oxo-4H-pyrido [1,2-a]pyrimidine-2-carboxamide] | 44.1 nM | – | –
CC1(CNCc2ccc3nc(CNC(=O)c4cc(=O)n5ccccc5n4)cn3c2)CCCCC1 [Compound 106, N-{[6-({[(1-methylcyclohexyl)methyl]amino}methyl)imidazo [1,2-a]pyridin-2-yl]methyl}-4-oxo-4H-pyrido [1,2-a]pyrimidine-2-carboxamide] | 15 nM | – | –
O=C(NCc1cn2cc(CO)ccc2n1)c1cccc2[nH]ncc12 [Compound 42] | – | 6260 nM | –
Cc1ccc2nc(C(C)(O)c3cnc(-c4cccc5[nH]ncc45)s3)cn2c1 (stereo not drawn) [Example 335, 1-[2-(1H-indazol-4-yl)thiazol-5-yl]-1-(6-methylimidazo[1,2-a]pyridin-2-yl)ethanol] | – | – | IC50 (Compounds 266-351): 7290 nM
O=C(NCc1cn2cc(Br)ccc2n1)c1cc(=O)n2ccccc2n1 [Compound 23, N-({6-bromoimidazo[1,2-a]pyridin-2-yl}methyl)-4-oxo-4H-pyrido[1,2-a]pyrimidine-2-carboxamide] | – | 1790 nM | –

Further lines, with some results ahead:

IC50 (Compounds 63-265) | IC50 (Compounds 1-62) | SMILES | further results
– | 272 nM | NCc1ccc2nc(CNC(=O)c3cc(=O)n4ccccc4n3)cn2c1 [Compound 50, N-{[6-(aminomethyl)imidazo[1,2-a]pyridin-2-yl]methyl}-4-oxo-4H-pyrido[1,2-a]pyrimidine-2-carboxamide] | –
– | 695 nM | O=C(NCc1cn2cc(CO)ccc2n1)c1cc(=O)n2ccccc2n1 [Compound 61, N-{[6-(hydroxymethyl)imidazo[1,2-a]pyridin-2-yl]methyl}-4-oxo-4H-pyrido[1,2-a]pyrimidine-2-carboxamide] | –
– | 9840 nM | O=C(NCc1cn2ccc(Br)cc2n1)c1cccc2[nH]ncc12 [Compound 2, N-({7-bromoimidazo[1,2-a]pyridin-2-yl}methyl)-1H-indazole-4-carboxamide] | –
27.7 nM | – | O=C(NCc1cn2cc(CNCCCC(F)(F)F)ccc2n1)c1cc(=O)n2ccccc2n1 [Compound 81, 4-oxo-N-[(6-{[(4,4,4-trifluorobutyl)amino]methyl}imidazo[1,2-a]pyridin-2-yl)methyl]-4H-pyrido[1,2-a]pyrimidine-2-carboxamide] | –
28.5 nM | – | CC1(NCc2ccc3nc(CNC(=O)c4cc(=O)n5ccccc5n4)cn3c2)CCCC1 [Compound 148, N-[(6-{[(1-methylcyclopentyl)amino]methyl}imidazo[1,2-a]pyridin-2-yl)methyl]-4-oxo-4H-pyrido [1,2-a]pyrimidine-2-carboxamide] | –
143 nM | – | O=C(NCc1cn2cc(CNCc3cccnc3)ccc2n1)c1cc(=O)n2ccccc2n1 [Compound 70, 4-oxo-N-{[6-({[(pyridin-3-yl)methyl]amino}methyl)imidazo [1,2-a]pyridin-2-yl]methyl}-4H-pyrido[1,2-a]pyrimidine-2-carboxamide] | –

Source: patent US12358915B2, “METTL3 inhibitory compounds” (STORM THERAPEUTICS LTD., priority 2019, dated 2025)
